Assays:
Assay type in all cases: cell-based
[1] = test system: LnCap human prostate cancer cell line; assay: MTT assay, percent cell survival, LnCap; conditions: LnCap cells, six days after drug treatment, in µM (unit assumed)
Description: (§1) Polyamine- and polyamine analog-amino acid conjugates of the invention were tested for their ability to inhibit growth of various cancer cell lines. The procedures used for testing activity are similar to those used in International Patent Application WO 00/66587 and U.S. Pat. No. 5,889,061 and are described below.
(§2) Human breast cancer cell line MCF7 was grown in Richter's Improved Modified Eagle's Medium supplemented with 10% fetal bovine serum (FBS) and 2.2 g/L sodium bicarbonate. Human brain tumor cell line U251 MG-NCI was grown in Dulbecco's Modified Eagle's Medium supplemented with 10% FBS. Human lung cancer cell line A549 was grown in Ham's F-12K medium (Cellgro, Mediatech, Inc., Va.), supplemented with 10% FBS and 2 mM L-glutamine. Human colon cancer cell line HT129 was cultured in McCoy's 5A medium (Gibco, BRL, Gaithersburg, Md.) supplemented with 10% FBS. Human prostate cancer cell lines PC-3, LNCAP and DuPro were grown in RPMI 1640 Medium (Cellgro, Mediatech, Inc., Va.) supplemented with 10% FBS. […]
(§3) A conventional MTT assay was used to evaluate percent cell survival. […] A microplate reader (“EMAX”-brand, Molecular Devices, Sunnyvale, Calif.) set at 570 nm was used to determine the optical density of the cultures. Results are expressed as a ratio of the optical density in drug-treated wells to the optical density in wells treated with vehicle only.

[2] = test system: DU145 human prostate cancer cell line; assay: MTT assay, percent cell survival, DU145; set-up: unit not given beside the values; conditions: DU145 cells, six days after drug treatment
Description: as §1, §2, §3

[3] = test system: DuPro human prostate cancer cell line; assay: MTT assay, percent cell survival, DuPro; set-up: unit not given beside the values; conditions: DuPro cells, six days after drug treatment
Description: as §1, §2, §3

[4] = test system: PC-3 human prostate cancer cell line; assay: MTT assay, percent cell survival, PC-3; conditions: PC-3 cells, six days after drug treatment, in µM (unit assumed)
Description: as §1, §2, §3

Compound | ID50 LnCap [1] | ID50 DU145 [2] | ID50 DuPro [3] | ID50 PC-3 [4]
CCNCCCCNCCCCNCCCCNCCCCNC(=O)CCN [SL-11143] | 6.4 | 0.06 | 13.75 | >31.25
CCNCCCCNCCCCNCCCCNCCCCN(CC)C(=O)C(N)CCC(N)=O (stereo not shown) [SL-11165] | >31.25 |  | >31.65 | 4.1

From US7312244B2, “Polyamine analog-amino acid conjugates useful as anticancer agents” (Cellgate, Inc., priority 1999, dated 2007)
